The assay concerns FOXC2-expressing HMLER cells. The assay is described as follows: Cell Titer Glo viability of FOXC2-HMLER cells (high throughput screen and 10-point response). Format: cell-based. The settings on record: Homo sapiens, 72 hours. The method, then: For high throughput screening, FOXC2-HMLER and HMLER cells were plated at 10^3 cells per well in white 384-well plates in 50 μL of MEGM medium (Lonza). Cells were allowed to attach for one hour before compound was transferred to each well as a DMSO solution using a 100 nL pintool head affixed to a PerkinElmer FX instrument. After 72-hour incubation, 30 μL of a Cell Titer Glo solution (diluted 1:6 in water, Promega) was dispensed into each well and luminance values were recorded using an Envision plate reader. […] All other miniaturized, selective viability experiments were performed as above using the indicated growth medium.
More specifically, in the high throughput screening assay above, each cell line was plated at 1,000 cells per well in 384-well plates, treated for 72 hours with 2 μM of test compound, and the viability of each line was determined in parallel by Cell Titer Glo (Promega) luminance measurements.

The mark [1] stands for this setting: scored relative to parent compound 1, read-out: Activity Score, inhibition of FOXC2-expressing HMLER cells by Formula I compounds.
The mark [2] stands for this setting: scored relative to parent compound 2, read-out: Activity Score, inhibition of FOXC2-expressing HMLER cells by Formula II compounds.

Like-named read-outs stand apart in the source and are kept apart here.

Consider `NC(=O)c1cccc(N2CCN(c3cnnc4c(Cl)cccc34)CC2)c1` [Compound 1SRV], for which the IC50 under setting [1] is 1 to 20 µM.
The same measure, in the same setting: then `Clc1ccccc1N1CCN(c2cnnc3c(Cl)cccc23)CC1` [Compound 1SRW], with 1 to 20 µM.
As to `Clc1cccc2c(N3CCN(c4ccccc4)CC3)cnnc12` [Compound 1SRX], the IC50 under setting [1] is above 20 µM.
The same measure, in the same setting: next, `Clc1ccc(N2CCN(c3cnnc4c(Cl)cccc34)CC2)cc1` [Compound 1SRY]: above 20 µM; `Clc1cccc(N2CCN(c3cnnc4c(Cl)cccc34)CC2)c1Cl` [Compound 1SRZ]: above 20 µM.
Turning to `COc1ccc(NCc2cc3cc4c(cc3n(CC(=O)Nc3ccccc3)c2=O)OCCO4)cc1` [Compound 2AA], the IC50 under setting [2] lay within 1 to 20 µM.
On to `COc1cc2cc(CNc3ccc(C)cc3)c(=O)n(CC(=O)Nc3cc(C)ccc3C)c2cc1OC` [Compound 2AB], for which the IC50 under setting [2] fell in the range of 1 to 20 µM.
The same measure, in the same setting: then `COc1ccc2cc(CNc3ccc(C)cc3)c(=O)n(CC(=O)Nc3ccc(C)cc3C)c2c1` [Compound 2AC], with 1 to 20 µM; and `CCc1ccccc1NC(=O)Cn1c(=O)c(CNc2ccccc2)cc2cc3c(cc21)OCCO3` [Compound 2AD], with 1 to 20 µM; and `CCc1ccc(NC(=O)Cn2c(=O)c(CNc3ccccc3)cc3cc4c(cc32)OCCO4)cc1` [Compound 2AE], with 1 to 20 µM.
Same read-out and setting: next, `CCc1ccccc1NC(=O)Cn1c(=O)c(CNc2ccc(C)cc2)cc2cc3c(cc21)OCCO3` [Compound 2AF]: 1 to 20 µM.
As to `CCOc1ccccc1NC(=O)Cn1c(=O)c(CNc2ccccc2)cc2ccc(OC)cc21` [Compound 2AG], the IC50 under setting [2] lay in the range of 1 to 20 µM.
On the same count and under the same terms, next, `COc1ccc2cc(CNc3ccc(C)cc3)c(=O)n(CC(=O)Nc3ccc(F)cc3)c2c1` [Compound 2AH]: 1 to 20 µM.
As to `CCc1ccccc1NC(=O)Cn1c(=O)c(CNc2ccc(OC)cc2)cc2cc3c(cc21)OCCO3` [Compound 2AI], under setting [2], the IC50 fell in the range of 1 to 20 µM.
Still for that read-out and setting: then `COc1ccc(NCc2cc3ccc(C)cc3n(CC(=O)Nc3ccccc3C)c2=O)cc1OC` [Compound 2AJ], with 1 to 20 µM; and `Cc1ccc(NCc2cc3cc4c(cc3n(CC(=O)Nc3ccccc3C)c2=O)OCCO4)cc1` [Compound 2AK], with 1 to 20 µM.
On to `CCc1ccc(NCc2cc3cc4c(cc3n(CC(=O)Nc3ccc(OC)cc3)c2=O)OCCO4)cc1` [Compound 2AL], for which the IC50 under setting [2] was 1 to 20 µM.
In the case of `Cc1ccc(NCc2cc3cc4c(cc3n(CC(=O)Nc3c(C)cccc3C)c2=O)OCCO4)cc1` [Compound 2AM], the IC50 under setting [2] was 1 to 20 µM.
With `CCc1ccc(NCc2cc3ccc(OC)cc3n(CC(=O)Nc3cc(C)ccc3C)c2=O)cc1` [Compound 2AN], under setting [2], the IC50 was in the range of 1 to 20 µM.
On the same count and under the same terms, next, `CCc1ccc(NCc2cc3ccc(OC)cc3n(CC(=O)Nc3c(C)cc(C)cc3C)c2=O)cc1` [Compound 2AO]: 1 to 20 µM; `CCc1ccc(NCc2cc3ccc(OC)cc3n(CC(=O)Nc3ccccc3CC)c2=O)cc1` [Compound 2AP]: 1 to 20 µM.
Still for that read-out and setting: next, `CCOC(=O)c1ccc(NC(=O)Cn2c(=O)c(CNc3ccccc3)cc3ccc(OC)cc32)cc1` [Compound 2AQ]: above 20 µM; `COc1ccc2cc(CNc3ccccc3)c(=O)n(CC(=O)NCc3ccc(Cl)cc3)c2c1` [Compound 2AR]: above 20 µM; `CCc1ccc(NCc2cc3cc(OC)c(OC)cc3n(CC(=O)Nc3ccc(CC)cc3)c2=O)cc1` [Compound 2AS]: above 20 µM.
Turning to `COc1ccc(NCc2cc3ccc(OC)cc3n(CC(=O)Nc3ccccc3F)c2=O)cc1` [Compound 2AT], the IC50 under setting [2] was above 20 µM.
Take `COc1ccc2cc(CNc3ccccc3)c(=O)n(CC(=O)NCc3ccccc3)c2c1` [Compound 2AU]: the IC50 under setting [2] is above 20 µM.
Still for that read-out and setting: then `COc1ccc(NCc2cc3ccc(OC)cc3n(CC(=O)Nc3ccc(C(C)C)cc3)c2=O)cc1` [Compound 2AV], with above 20 µM.
For `COc1ccc2cc(CNc3ccc(OC)c(OC)c3)c(=O)n(CC(=O)Nc3ccccc3C)c2c1` [Compound 2AW], under setting [2], the IC50 was above 20 µM.
Still for that read-out and setting: next, `COc1ccc2cc(CNc3ccccc3)c(=O)n(CC(=O)NCCc3ccccc3)c2c1` [Compound 2AX]: above 20 µM.
